Reference: patent US20250147039A1, “Compounds for complexation of rare earth elements and/or s-, p-, d- block metals, their coordination compounds, peptide conjugates, method of their preparation and use thereof” (USTAV ORGANICKE CHEMIE A BIOCHEMIE AV CR V.V.I., priority 2021, published 2025)

Columns and labels:
Assay type in all cases: physicochemical
[1] = Dissociation of chelates in aq. 6.0M HCl at 80° C. (acid decomplexation kinetic inertness) (Chart 17)
[2] = Dissociation of chelates in aq. 1.0M HCl at 80° C. (acid decomplexation kinetic inertness) (Chart 18)
[3] = Dissociation of chelates in aq. 0.1M HCl at 80° C. (acid decomplexation kinetic inertness) (Chart 19)
[4] = Dissociation of chelates in aq. 0.1M HCl at RT (acid decomplexation kinetic inertness) (Chart 20)

| fraction of intact chelate ([1]; 1 month) | fraction of intact chelate ([1]; 1 week) | fraction of intact chelate ([1]; 1 hour) | fraction of intact chelate ([1]; 1 day) | fraction of intact chelate ([2]; 1 month) | fraction of intact chelate ([2]; 1 week) | fraction of intact chelate ([2]; 1 hour) | fraction of intact chelate ([2]; 1 day) | fraction of intact chelate ([3]; 1 month) | fraction of intact chelate ([3]; 1 week) | fraction of intact chelate ([3]; 1 hour) | fraction of intact chelate ([3]; 1 day) | fraction of intact chelate ([4]; 1 month) | fraction of intact chelate ([4]; 1 week) | fraction of intact chelate ([4]; 1 hour) | fraction of intact chelate ([4]; 1 day) | Compound |
| --- | --- | --- | --- | --- | --- | --- | --- | --- | --- | --- | --- | --- | --- | --- | --- | --- |
| 0% | 0% | 0% | 0% | 0% | 0% | 62% | 0% | 1% | 35% | 99% | 86% | 96% | 99% | 100% | 100% | O=C1C[N@@]2CC[N@]3CC[N@@](CC[N@](CC2)Cc2cccc(n2)-c2cnnn2Cc2cc(-c4ccccc4)cc(n2)C3)CC(=O)[O][Sm][O]1 [TD867] |
| 24% | 71% | 99% | 95% | 99% | 100% | 100% | 100% | 100% | 100% | 100% | 100% | 100% | 100% | 100% | 100% | O=C1C[N@@]2CC[N@]3CC[N@@](CC[N@](CC2)Cc2cccc(n2)-c2cnnn2Cc2cc(-c4ccccc4)cc(n2)C3)CC(=O)[O][Er][O]1 [TD865] |
| 0% | 0% | 0% | 0% | 0% | 0% | 0% | 0% | 0% | 0% | 0% | 0% | 0% | 0% | 95% | 37% | O=C1C[N@@]2CC[N@]3CC[N@@](CC[N@](CC2)Cc2cccc(n2)-c2cnnn2Cc2cc(-c4ccccc4)cc(n2)C3)CC(=O)[O][Ce][O]1 [TD870] |
| 0% | 0% | 0% | 0% | 0% | 0% | 0% | 0% | 0% | 0% | 0% | 0% | 0% | 14% | 99% | 68% | O=C1C[N@@]2CC[N@]3CC[N@@](CC[N@](CC2)Cc2cccc(n2)-c2cn(nn2)Cc2cc(-c4ccccc4)cc(n2)C3)CC(=O)[O][Lu][O]1 [TD874] |
| 0% | 0% | 0% | 0% | 0% | 0% | 0% | 0% | 0% | 0% | 0% | 0% | 0% | 0% | 76% | 4% | O=C1C[N@@]2CC[N@]3CC[N@@](CC[N@](CC2)Cc2cccc(n2)-c2cnnn2Cc2cc(-c4ccccc4)cc(n2)C3)CC(=O)[O][La][O]1 [TD651] |
| 0% | 0% | 72% | 0% | 23% | 78% | 99% | 96% | 99% | 99% | 100% | 100% | 100% | 100% | 100% | 100% | O=C1C[N@@]2CC[N@]3CC[N@@](CC[N@](CC2)Cc2cccc(n2)-c2cnnn2Cc2cc(-c4ccccc4)cc(n2)C3)CC(=O)[O][Tb][O]1 [TD600] |
| 98% | 99% | 100% | 100% | 100% | 100% | 100% | 100% | 100% | 100% | 100% | 100% | 100% | 100% | 100% | 100% | O=C1C[N@@]2CC[N@]3CC[N@@](CC[N@](CC2)Cc2cccc(n2)-c2cnnn2Cc2cc(-c4ccccc4)cc(n2)C3)CC(=O)[O][Lu][O]1 [TD522] |
| 0% | 0% | 77% | 0% | 0% | 21% | 100% | 82% | 60% | 90% | 100% | 98% | 100% | 100% | 100% | 100% | O=P1(c2ccccc2)C[N@@]2CC[N@]3CC[N@@](CC[N@](CC2)Cc2cccc(n2)-c2cnnn2Cc2cccc(n2)C3)CP(=O)(c2ccccc2)[O][Gd][O]1 (stereo partly drawn) [TD925] |
| 0% | 0% | 0% | 0% | 0% | 0% | 0% | 0% | 0% | 0% | 76% | 0% | 2% | 54% | 99% | 90% | O=C1C[N@@]2CC[N@]3CC[N@@](CC[N@](CC2)Cc2cccc(n2)-c2cnnn2Cc2cc(-c4ccccc4)cc(n2)C3)CC(=O)[O][Nd][O]1 [TD868] |
| 0% | 0% | 95% | 25% | 87% | 96% | 100% | 99% | 100% | 100% | 100% | 100% | 100% | 100% | 100% | 100% | O=C1C[N@@]2CC[N@]3CC[N@@](CC[N@](CC2)Cc2cccc(n2)-c2cnnn2Cc2cc(-c4ccccc4)cc(n2)C3)CC(=O)[O][Dy][O]1 [TD866] |

| Compound | fraction of intact chelate ([1]; 1 month) | fraction of intact chelate ([1]; 1 week) | fraction of intact chelate ([1]; 1 hour) | fraction of intact chelate ([1]; 1 day) | fraction of intact chelate ([2]; 1 month) | fraction of intact chelate ([2]; 1 week) | fraction of intact chelate ([2]; 1 hour) | fraction of intact chelate ([2]; 1 day) | fraction of intact chelate ([3]; 1 month) | fraction of intact chelate ([3]; 1 week) | fraction of intact chelate ([3]; 1 hour) | fraction of intact chelate ([3]; 1 day) | fraction of intact chelate ([4]; 1 month) | fraction of intact chelate ([4]; 1 week) | fraction of intact chelate ([4]; 1 hour) | fraction of intact chelate ([4]; 1 day) |
| --- | --- | --- | --- | --- | --- | --- | --- | --- | --- | --- | --- | --- | --- | --- | --- | --- |
| O=C1C[N@@]2CC[N@]3CC[N@@](CC[N@](CC2)Cc2cccc(n2)-c2cn(nn2)Cc2cc(-c4ccccc4)cc(n2)C3)CC(=O)[O][Cd][O]1 [TD900] | 0% | 0% | 0% | 0% | 0% | 0% | 0% | 0% | 0% | 0% | 56% | 0% | 63% | 91% | 100% | 99% |
| O=C1C[N@@]2CC[N@]3CC[N@@](CC[N@](CC2)Cc2cccc(n2)-c2cnnn2Cc2cc(-c4ccccc4)cc(n2)C3)CC(=O)[O][Cd][O]1 [TD880] | 0% | 0% | 43% | 0% | 63% | 90% | 100% | 99% | 100% | 100% | 100% | 100% | 100% | 100% | 100% | 100% |
